The test system of series [1] is B. globigii. The class given is cell-based, Bacillus globigii. The conditions noted are these: colony counting, 3 h 37°C, 10 mM phosphate buffer pH 7.0 with 1/1000 TSB, MBC = <100 CFU/ml. As for the experimental part: (§1) Overnight cultures of E. coli and B. globigii were grown in TSB medium at 37°C to mid-logarithmic phase. The antimicrobial activity of the PR-39 derived peptides was tested using colony counting as described before. In short, cells were collected via centrifugation at 900×g for 10 minutes, and resuspended in 10 mM phosphate buffer, pH 7.0, containing 1/1000 TSB medium (Buffer A). Cells were further diluted to 2×10^6 CFU/ml in the same buffer. Next, 25 µl of cell suspension was mixed with an equal volume of different concentrations of peptides ranging from 0–80 µM, and incubated further for 3 hours at 37°C. Ten-fold dilutions were prepared in minimal buffer containing 1/1000 TSB medium in distilled water, and 100 µl from each dilution was spread on TSA plates (Trypton Soy Agar; Oxoid). The plates were incubated at 37°C and the number of colonies was counted 24 h later to determine the number of surviving bacteria. Minimal Bactericidal Concentration (MBC) was defined as <100 CFU/ml corresponding to the detection limit of this assay. To determine the dependence of activity of PR-39 on the energy status of the cell, E. coli was incubated 30 min at 37°C in the presence of the metabolic uncouplers 50 µM carbonyl cyanide m-chlorophenylhydrazone (CCCP), or 5 mM 2,4-dinitrophenol (DNP). Subsequently, an antimicrobial activity assay was performed as described above.

For series [2], the system named is Bacillus Globigii (TNO). The class given is cell-based. Particulars: broth dilution, 50% MHB, turbidity; range of triplicate experiments. Background: In broth dilution the organism is exposed to a series of concentrations in liquid medium.
The test system of series [3] is Bacillus Lichen ATCC 21424. Kind of series: Broth dilution assay (MIC). Particulars: 50% MHB, turbidity, range of triplicate experiments. Format: cell-based, Bacillus licheniformis.
Series [4] relates to Bacillus Cereus ATCC 9193. Nature of the series: Broth dilution assay (MIC). Format: cell-based. Particulars: 50% MHB, turbidity, range of triplicate experiments.
Series [5] relates to E.coli ATCC 4157. Nature of the series: Broth dilution assay (MIC). Format: cell-based, Escherichia coli. The conditions noted are these: 50% MHB, turbidity, range of triplicate experiments.
Series [6] has as its system Enterococcus Faeceum E155. Format: cell-based. Particulars: broth dilution, 50% MHB, turbidity; range of triplicate experiments.
Series [7] deals with E.coli K12. Nature of the series: Broth dilution assay (MIC). The class given is cell-based, Escherichia coli. The conditions noted are these: 50% MHB, turbidity, range of triplicate experiments.
For series [8], the system named is Streptococcus Pyogenes (ATCC 19616). Nature of the series: Broth dilution assay (MIC). The class given is cell-based. The conditions noted are these: 50% MHB, turbidity, range of triplicate experiments.
Series [9] deals with Bacillus Subtilis (ATCC6633). Nature of the series: Broth dilution assay (MIC). The class given is cell-based. Particulars: 50% MHB, turbidity, range of triplicate experiments.
The subject of series [10] is serine proteases, elastase, and aminopeptidases. The conditions noted are these: cited from earlier work. An excerpt: Current literature on PR-39 has shifted from an initial focus on antibacterial activity to potential new roles in host defence mechanisms.
In series [11] the test system is E. coli. Kind of series: Colony counting assay (MBC). Format: cell-based, Escherichia coli. Particulars: 3 h 37°C, 10 mM phosphate buffer pH 7.0 with 1/1000 TSB, MBC = <100 CFU/ml. How it is done:
as §1

The test system of series [12] is Enterococcus Faecalis (ATCC 29213). Kind of series: Broth dilution assay (MIC). The conditions noted are these: 50% MHB, turbidity, range of triplicate experiments. The class given is cell-based.
In series [13] the test system is E.coli K88 403. Particulars: broth dilution, 50% MHB, turbidity; range of triplicate experiments. As for the experimental part:
Initial screening for antibacterial activity of PR-39 was performed using broth dilution assays. Bacteria were grown to mid-logarithmic phase in MHB medium. The optical density was measured and bacteria were diluted to 2×10^6 CFU/ml. Subsequently 25 µl bacteria were incubated with 25 µl peptide in polypropylene 96 wells plates and incubated at 37°C. After 3 h 200 µl MHD medium was added and samples were further incubated overnight. Minimal inhibitory concentrations (MIC) were determined by turbidity measurement of the wells.

Series [14] deals with E.coli ATCC25922. Nature of the series: Broth dilution assay (MIC). Format: cell-based, Escherichia coli. Particulars: 50% MHB, turbidity, range of triplicate experiments.

≈ marks a conversion by molar mass, not a printed value. Where a SMILES comes first, the peptide text is derived from it.

With `CC[C@H](C)[C@H](NC(=O)[C@H](CCCNC(=N)N)NC(=O)[C@@H]1CCCN1C(=O)[C@@H]1CCCN1C(=O)[C@H](CC(C)C)NC(=O)[C@H](CCCNC(=N)N)NC(=O)[C@@H]1CCCN1C(=O)[C@@H]1CCCN1C(=O)[C@H](Cc1ccccc1)NC(=O)[C@H](Cc1ccccc1)NC(=O)[C@@H]1CCCN1C(=O)[C@@H]1CCCN1C(=O)[C@@H]1CCCN1C(=O)[C@H](CCCNC(=N)N)NC(=O)[C@@H]1CCCN1C(=O)[C@H](CCCNC(=N)N)NC(=O)[C@@H]1CCCN1C(=O)[C@H](CC(C)C)NC(=O)[C@H](Cc1ccc(O)cc1)NC(=O)[C@@H]1CCCN1C(=O)[C@@H]1CCCN1C(=O)[C@H](CCCNC(=N)N)NC(=O)[C@@H]1CCCN1C(=O)[C@H](CCCNC(=N)N)NC(=O)[C@H](CCCNC(=N)N)NC(=O)[C@@H](N)CCCNC(=N)N)C(=O)N1CCC[C@H]1C(=O)N1CCC[C@H]1C(=O)NCC(=O)N[C@@H](Cc1ccccc1)C(=O)N1CCC[C@H]1C(=O)N1CCC[C@H]1C(=O)N[C@@H](CCCNC(=N)N)C(=O)N[C@@H](Cc1ccccc1)C(=O)N1CCC[C@H]1C(=O)N1CCC[C@H]1C(=O)N[C@@H](CCCNC(=N)N)C(=O)N[C@@H](Cc1ccccc1)C(=O)N1CCC[C@H]1C(=O)O` [PR-39] (H-RRRPRPPYLPRPRPPPFFPPRLPPRIPPGFPPRFPPRFP-OH), the “MBC B. globigii 0 mM NaCl” value in series [1] (2×10^6 CFU/ml, no NaCl added) is reported as 2.5 µM (≈ 11.8 µg/mL). In series [1] (100 mM NaCl added), the “MBC B. globigii +100 mM NaCl” value is given as 5 µM (≈ 23.6 µg/mL). The MIC (as a rule, the least concentration at which growth counts as inhibited) was 1.25 to 5 µM in [2]; 5 µM (≈ 23.6 µg/mL) in [3]; 5 to 20 µM in [4]; 1.25 to 2.5 µM in series [5]; 1.25 to 2.5 µM in series [6]; 1.25 to 2.5 µM in series [7]. Further, the MIC in [8] is 2.5 to 5 µM; in [9], 2.5 to 5 µM; in [12], 10 µM (≈ 47.2 µg/mL); in [13] it was 1.25 to 2.5 µM; in series [14], 2.5 to 10 µM. Besides, the resistance to proteases entry in series [10] is “resistant to serine proteases, elastase, and aminopeptidases”. For the same compound, in series [11] (2×10^6 CFU/ml, no NaCl added), the “MBC E. coli 0 mM NaCl” value amounted to 1.25 µM (≈ 5.9 µg/mL). In addition, in [11] (100 mM NaCl added), the “MBC E. coli 100 mM NaCl” value stood at 2.5 µM (≈ 11.8 µg/mL).

The values above are taken from article PMC3995882, “Antimicrobial and Immunomodulatory Activities of PR-39 Derived Peptides” (PLoS ONE, 2014).
